From article PMC8443859 (Journal of Traditional and Complementary Medicine, 2021)
*1 amine or outer side, *2 acyl side, *3 side chain or, on linkers, in order; H or OH if unused. Where a SMILES comes first, the peptide text is derived from it. Bridges are numbered along the chain shown (N, C = ends). Roman numbers before positions name the chains, in order. [ ]: non-standard residue; d: D form. Actinocin(9to1) = Cc1c2oc3c(C)ccc(C(=O)[*:1])c3nc-2c(C(=O)[*:2])c(N)c1=O; NMeV = CN[C@H](C(=O)O)C(C)C; Sar = CNCC(=O)O

Experiments:
measles virus = details: Vero cells; cited from earlier work
[1] = target: S1 domain of SARS-CoV-2 spike protein (Severe acute respiratory syndrome coronavirus 2, UniProt P0DTC2); assay: biochemical; assay type: binding
[2] = system: lentivirus particles pseudotyped (Vpp) with SARS-CoV-2 Spike protein; assay: organism not typed; assay type: cell-based; details: for inhibition at 10 µM: HEK-293T, read-out: inhibition of SARS-CoV-2 viral infection efficacy
293T cells = assay: Cell viability, MTT assay; assay type: cell-based; details: Homo sapiens, HEK-293T, 48 h, read-out: IC50 cell viability
[3] = annotation, ref TDEC website; cited from earlier work
adenovirus = details: 293 cells; cited from earlier work
[4] = system: interaction between viral spike protein and ACE2 protein; details: cited from earlier work

Row | SMILES | inhibition of measles virus replication and RNA synthesis (measles virus) | -TΔS [1] [kJ/mol] | c (c value) [1] | n (reaction stoichiometry) [1] | ΔH [1] [kJ/mol] | Kd [1] [nM] | inhibition at 10 µM [2] [%] | IC50 (293T cells) [nM] | ΔG [1] [kJ/mol] | ΔS [1] [J/mol·K] | Water solubility, Solubility category [3] | inhibition of adenovirus infection (adenovirus) | inhibition of SARS-CoV-2 viral infection efficacy ([2]; 10 µM) | inhibitory activity against spike-ACE2 interaction [4]
1 | Cc1c2oc3c(C)ccc(C(=O)N[C@@H]4C(=O)N[C@H](C(C)C)C(=O)N5CCC[C@H]5C(=O)N(C)CC(=O)N(C)[C@@H](C(C)C)C(=O)O[C@@H]4C)c3nc-2c(C(=O)N[C@@H]2C(=O)N[C@H](C(C)C)C(=O)N3CCC[C@H]3C(=O)N(C)CC(=O)N(C)[C@@H](C(C)C)C(=O)O[C@@H]2C)c(N)c1=O [Actinomycin D] (I: T[dV]P[Sar][NMeV] / II: T[dV]P[Sar][NMeV]; ester I:1-I:C, II:1-II:C; linker I:N-II:N via Actinocin(9to1)) | inhibit measles virus replication and RNA synthesis | – | – | – | – | – | – | – | – | – | – | – | – | –
2 | O=c1cc(-c2ccc(O)c(-c3c(O)cc(O)c4c(=O)cc(-c5ccc(O)cc5)oc34)c2)oc2cc(O)cc(O)c12 [Amentoflavone] | – | 51.48 | 6.4 | 2.731 | -82.13 | 4270 | 50 to 90 | > 100000 | – | – | – | – | – | –
3 | O=C1/C(=c2\c3ccccc3n3c(=O)c4ccccc4nc23)Nc2ccccc21 [Candidine] | – | 72.58 | – | 0.115 | -100 | 15700 | – | – | -27.42 | −243.4 | – | – | – | –
4 | CC1=C(O)C(=O)C=C2C1=CC=C1[C@@]2(C)CC[C@@]2(C)[C@@H]3C[C@](C)(C(=O)O)CC[C@]3(C)CC[C@]12C [Celastrol] | – | -199.1 | 8.2 | 1.409 | 166.2 | 1710 | 50 to 90 | 987 | -32.92 | 667.9 | – | – | – | –
5 | O=C1C(C2(C3(C4=Nc5ccccc5C4=O)Nc4ccccc4C3=O)Nc3ccccc3C2=O)=Nc2ccccc21 (stereo not shown) [Cephalinone D] | – | -9.972 | 0.8 | 0.333 | – | – | – | – | – | 33.45 | – | – | – | –
6 | C[C@@H]1CC[C@@]2(OC1)O[C@H]1C[C@H]3[C@@H]4CC=C5C[C@@H](O[C@@H]6O[C@H](CO)[C@@H](O[C@@H]7O[C@@H](C)[C@H](O)[C@@H](O)[C@H]7O)[C@H](O)[C@H]6O[C@@H]6O[C@@H](C)[C@H](O)[C@@H](O)[C@H]6O)CC[C@]5(C)[C@H]4CC[C@]3(C)[C@H]1[C@@H]2C [Dioscin] | – | – | 117.3 | 5.488 | – | 468 | – | 1560 | -36.13 | 110.6 | Moderate | inhibit the initial stage of adenovirus infection | more than 80% | –
7 | CC1(C)[C@@H](O[C@H]2O[C@H](C(=O)O)[C@@H](O)[C@H](O)[C@H]2O[C@@H]2O[C@H](C(=O)O)[C@@H](O)[C@H](O)[C@H]2O)CC[C@]2(C)[C@H]3C(=O)C=C4[C@@H]5C[C@@](C)(C(=O)O)CC[C@]5(C)CC[C@@]4(C)[C@]3(C)CC[C@@H]12 [Glycyrrhizic acid] | – | – | – | – | – | – | – | – | – | – | – | – | – | inhibitory activity against the interaction between viral spike protein and ACE2 protein
